Data taken from patent US7138361B2, “Herbicidal heterocycles” (E. I. du Pont de Nemours and Company, priority 2000, dated 2006).

How the values were obtained:
Assay in all cases: Test C flooded paddy test
Format in all cases: in vivo
[1] = tested on: duck salad (Heteranthera limosa); settings: for Ducksalad plant response rating: scale 0 to 100, 0 no effect, 100 complete control
Method in brief: (§1)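 Visual ratings (0 = no effect, 100 = complete control) were made 12–14 days after treatment, relative to greenhouse controls. Plants in the flooded paddy test were rice, smallflower flatsedge, duck salad and barnyardgrass, treated at the 2-leaf stage.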

[2] = tested on: smallflower flatsedge (Cyperus difformis); settings: for Flatsedge plant response rating: Flooded Paddy, scale 0 to 100, 0 no effect, 100 complete control; for Plant response rating, Flatsedge: scale 0 to 100 (0 no effect, 100 complete control)
Method in brief: as §1

[3] = tested on: barnyardgrass (Echinochloa crus-galli); settings: for Barnyardgrass plant response rating: scale 0 to 100, 0 no effect, 100 complete control
Method in brief: as §1

[4] = Flooded Paddy, Rate 500 g/ha, scale 0 to 100
[5] = flooded paddy test, Rate 62 g/ha, scale 0 to 100 (0 no effect, 100 complete control)
[6] = flooded paddy test, Rate 125 g/ha, scale 0 to 100 (0 no effect, 100 complete control)
[7] = flooded paddy test, Rate 62 g/ha
[8] = flooded paddy test, Rate 125 g/ha
[9] = flooded paddy test, Rate 16 g/ha, visually evaluated after 12 to 14 days, 0 = no effect, 100 = complete control
[10] = Flooded Paddy, Rate 1000 g/ha, scale 0 to 100

CC(C)(C)c1ccn(C2SCN(c3cccc(C(F)(F)F)c3)C2=O)n1 (stereo not drawn) [Compound 1]
Plant response rating, Ducksalad [1, 4]: 100
Ducksalad plant response rating ([1]; Flooded Paddy, Rate 250 g/ha): 90
Plant response rating, Ducksalad [1, 5]: 60
Plant response rating, Ducksalad [1, 6]: 90
Flatsedge plant response rating ([2]; Rate 250 g/ha): 100
Flatsedge plant response rating ([2]; Rate 500 g/ha): 100
Plant response rating, Flatsedge [2, 7]: 90
Plant response rating, Flatsedge [2, 8]: 100
Plant response rating, Barnyardgrass [3, 4]: 100
Barnyardgrass plant response rating ([3]; Flooded Paddy, Rate 250 g/ha): 30
Plant response rating, Barnyardgrass [3, 5]: 20
Plant response rating, Barnyardgrass [3, 6]: 80

CC1(c2ccn(C3OCN(c4cccc(OC(F)(F)F)c4)C3=O)n2)CC1 (stereo not drawn) [Compound 69]
Ducksalad plant response rating ([1]; Flooded Paddy, Rate 250 g/ha): 0
Ducksalad plant response rating ([1]; Flooded Paddy, Rate 500 g/ha): 20
Plant response rating, Ducksalad [1, 5]: 0
Plant response rating, Ducksalad [1, 6]: 0
Flatsedge plant response rating ([2]; Rate 250 g/ha): 100
Flatsedge plant response rating ([2]; Rate 500 g/ha): 100
Plant response rating, Flatsedge [2, 7]: 100
Plant response rating, Flatsedge [2, 8]: 100
Barnyardgrass plant response rating ([3]; Flooded Paddy, Rate 250 g/ha): 100
Barnyardgrass plant response rating ([3]; Flooded Paddy, Rate 500 g/ha): 100
Plant response rating, Barnyardgrass [3, 5]: 30
Plant response rating, Barnyardgrass [3, 6]: 30

CC1(C)CCc2cn(C3CCN(c4cccc(C(F)(F)F)c4)C3=O)nc21 (stereo not drawn) [Compound 10]
Plant response rating, Ducksalad [1, 4]: 90
Ducksalad plant response rating ([1]; Flooded Paddy, Rate 250 g/ha): 90
Plant response rating, Ducksalad [1, 5]: 0
Plant response rating, Ducksalad [1, 6]: 20
Plant response rating (scale 0 to 100), Ducksalad [1, 9]: 0
Flatsedge plant response rating ([2]; Rate 250 g/ha): 100
Flatsedge plant response rating ([2]; Rate 500 g/ha): 100
Plant response rating, Flatsedge [2, 7]: 50
Plant response rating, Flatsedge [2, 8]: 80
Plant response rating (scale 0 to 100), Flatsedge [2, 9]: 30
Plant response rating, Barnyardgrass [3, 4]: 80
Barnyardgrass plant response rating ([3]; Flooded Paddy, Rate 250 g/ha): 40
Plant response rating, Barnyardgrass [3, 5]: 0
Plant response rating, Barnyardgrass [3, 6]: 0
Plant response rating (scale 0 to 100), Barnyardgrass [3, 9]: 0

CC(C)(C)c1ccn(C2CCN(c3cccc(C(F)(F)F)c3)C2=O)n1 (stereo not drawn) [Example 3, 3-[3-(1,1-dimethylethyl)-1H-pyrazol-1-yl]-1-[3-(trifluoromethyl)phenyl]-2-pyrrolidinone]
Plant response rating, Ducksalad [1, 4]: 90
Plant response rating, Ducksalad [1, 10]: 100
Ducksalad plant response rating ([1]; Flooded Paddy, Rate 250 g/ha): 80
Plant response rating, Ducksalad [1, 5]: 20
Plant response rating, Ducksalad [1, 6]: 80
Flatsedge plant response rating ([2]; Rate 250 g/ha): 100
Flatsedge plant response rating ([2]; Rate 500 g/ha): 100
Flatsedge plant response rating ([2]; rate of this column group stands in head line r653, not shown (group before Rate 500 g/ha)): 100
Plant response rating, Flatsedge [2, 7]: 90
Plant response rating, Flatsedge [2, 8]: 100
Plant response rating, Barnyardgrass [3, 4]: 100
Plant response rating, Barnyardgrass [3, 10]: 100
Barnyardgrass plant response rating ([3]; Flooded Paddy, Rate 250 g/ha): 100
Plant response rating, Barnyardgrass [3, 5]: 20
Plant response rating, Barnyardgrass [3, 6]: 80

O=C1C(n2ccc(C3CC3)n2)SCN1c1cccc(C(F)(F)F)c1 (stereo not drawn) [Compound 26]
Ducksalad plant response rating ([1]; Flooded Paddy, Rate 250 g/ha): 100
Ducksalad plant response rating ([1]; Flooded Paddy, Rate 500 g/ha): 70
Plant response rating, Ducksalad [1, 5]: 0
Plant response rating, Ducksalad [1, 6]: 80
Flatsedge plant response rating ([2]; Rate 250 g/ha): 95
Flatsedge plant response rating ([2]; Rate 500 g/ha): 95
Plant response rating, Flatsedge [2, 7]: 90
Plant response rating, Flatsedge [2, 8]: 90
Barnyardgrass plant response rating ([3]; Flooded Paddy, Rate 250 g/ha): 80
Barnyardgrass plant response rating ([3]; Flooded Paddy, Rate 500 g/ha): 100
Plant response rating, Barnyardgrass [3, 5]: 0
Plant response rating, Barnyardgrass [3, 6]: 50

CC1CCc2cn(C3CCN(c4cccc(C(F)(F)F)c4)C3=O)nc21 (stereo not drawn) [Compound 11]
Plant response rating, Ducksalad [1, 4]: 30
Ducksalad plant response rating ([1]; Flooded Paddy, Rate 250 g/ha): 20
Plant response rating, Ducksalad [1, 5]: 0
Plant response rating, Ducksalad [1, 6]: 20
Flatsedge plant response rating ([2]; Rate 250 g/ha): 90
Flatsedge plant response rating ([2]; Rate 500 g/ha): 100
Plant response rating, Flatsedge [2, 7]: 90
Plant response rating, Flatsedge [2, 8]: 90
Plant response rating, Barnyardgrass [3, 4]: 80
Barnyardgrass plant response rating ([3]; Flooded Paddy, Rate 250 g/ha): 30
Plant response rating, Barnyardgrass [3, 5]: 0
Plant response rating, Barnyardgrass [3, 6]: 20
